# Measurements taken from ChEMBL document CHEMBL5291721, “A preclinical secondary pharmacology resource illuminates target-adverse drug reaction associations of marketed drugs” (Nat Commun, 2023).
# How the values were obtained:
# Adenosine receptor A2a = Adenosine receptor A2a (Homo sapiens, UniProt P29274)
# [1] = biological target: T1, Alpha-2B adrenergic receptor (Homo sapiens, UniProt P18089)
# T1 sequence (P18089 whole entry): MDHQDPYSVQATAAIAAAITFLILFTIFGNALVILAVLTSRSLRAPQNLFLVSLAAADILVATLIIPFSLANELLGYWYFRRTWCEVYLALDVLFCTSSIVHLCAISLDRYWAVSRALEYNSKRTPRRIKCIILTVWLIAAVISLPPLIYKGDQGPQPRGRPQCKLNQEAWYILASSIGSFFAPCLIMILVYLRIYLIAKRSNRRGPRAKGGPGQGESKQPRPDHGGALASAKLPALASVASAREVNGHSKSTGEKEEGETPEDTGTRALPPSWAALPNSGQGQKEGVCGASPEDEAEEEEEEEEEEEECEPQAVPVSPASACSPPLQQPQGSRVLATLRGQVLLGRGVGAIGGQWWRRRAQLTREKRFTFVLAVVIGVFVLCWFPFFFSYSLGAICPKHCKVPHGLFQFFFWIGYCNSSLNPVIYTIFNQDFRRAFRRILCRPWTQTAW
# Estrogen receptor = biological target: T2, Estrogen receptor (Homo sapiens, UniProt P03372)
# T2 sequence (P03372 whole entry): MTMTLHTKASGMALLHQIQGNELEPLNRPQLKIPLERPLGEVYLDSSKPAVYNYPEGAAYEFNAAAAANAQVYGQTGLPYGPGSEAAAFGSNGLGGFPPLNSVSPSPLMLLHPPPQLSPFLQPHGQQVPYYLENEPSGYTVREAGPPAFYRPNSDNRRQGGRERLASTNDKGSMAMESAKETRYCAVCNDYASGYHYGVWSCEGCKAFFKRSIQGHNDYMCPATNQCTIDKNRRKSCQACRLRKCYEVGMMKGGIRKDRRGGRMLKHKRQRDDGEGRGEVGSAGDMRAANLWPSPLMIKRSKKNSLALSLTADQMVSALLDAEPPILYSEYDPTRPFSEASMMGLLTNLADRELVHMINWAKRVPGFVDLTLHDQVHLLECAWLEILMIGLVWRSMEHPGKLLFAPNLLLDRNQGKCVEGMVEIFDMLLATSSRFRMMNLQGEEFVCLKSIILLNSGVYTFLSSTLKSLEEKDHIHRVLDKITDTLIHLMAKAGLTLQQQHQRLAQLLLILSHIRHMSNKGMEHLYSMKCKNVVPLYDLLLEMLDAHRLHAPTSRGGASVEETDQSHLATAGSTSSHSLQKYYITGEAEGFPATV
# [2] = biological target: Gamma-aminobutyric acid receptor subunit alpha-1 (Rattus norvegicus, UniProt P62813); assay type: functional
# [3] = biological target: Glutamate receptor ionotropic, NMDA 1 (Rattus norvegicus, UniProt P35439)
# Histamine H1 receptor = Histamine H1 receptor (Homo sapiens, UniProt P35367)
# [4] = biological target: T3, 5-hydroxytryptamine receptor 1A (Homo sapiens, UniProt P08908); assay type: functional, cell-based
# T3 sequence (P08908 whole entry): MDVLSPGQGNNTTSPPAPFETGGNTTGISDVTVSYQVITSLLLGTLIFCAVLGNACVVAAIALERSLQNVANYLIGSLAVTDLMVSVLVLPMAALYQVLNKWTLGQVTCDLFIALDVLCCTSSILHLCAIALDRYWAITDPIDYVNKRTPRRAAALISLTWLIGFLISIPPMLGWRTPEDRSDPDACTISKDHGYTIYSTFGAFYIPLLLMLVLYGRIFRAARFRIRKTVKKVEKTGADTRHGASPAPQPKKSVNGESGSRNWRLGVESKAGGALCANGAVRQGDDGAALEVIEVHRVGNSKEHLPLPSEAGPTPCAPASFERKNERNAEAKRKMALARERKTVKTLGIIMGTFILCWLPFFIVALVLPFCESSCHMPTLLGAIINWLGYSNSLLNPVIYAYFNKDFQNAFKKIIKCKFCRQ
# [5] = biological target: T4, 5-hydroxytryptamine receptor 2C (Homo sapiens, UniProt P28335)
# T4 sequence (P28335 whole entry): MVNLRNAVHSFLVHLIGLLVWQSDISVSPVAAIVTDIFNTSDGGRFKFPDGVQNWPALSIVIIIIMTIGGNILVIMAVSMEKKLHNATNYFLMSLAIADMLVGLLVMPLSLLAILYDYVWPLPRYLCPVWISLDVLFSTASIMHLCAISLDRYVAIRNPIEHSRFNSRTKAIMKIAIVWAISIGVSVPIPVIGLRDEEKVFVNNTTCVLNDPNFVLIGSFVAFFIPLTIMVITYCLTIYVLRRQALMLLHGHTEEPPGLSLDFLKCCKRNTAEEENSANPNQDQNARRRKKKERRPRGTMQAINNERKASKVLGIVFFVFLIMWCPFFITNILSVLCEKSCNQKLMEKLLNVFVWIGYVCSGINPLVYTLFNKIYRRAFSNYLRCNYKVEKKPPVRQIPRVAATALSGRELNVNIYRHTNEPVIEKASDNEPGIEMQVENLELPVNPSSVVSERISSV
# Melanocortin receptor 3 = Melanocortin receptor 3 (Homo sapiens, UniProt P41968)
# [6] = biological target: Delta-type opioid receptor (Homo sapiens, UniProt P41143)
# [7] = biological target: 3',5'-cyclic-AMP phosphodiesterase 4D (Homo sapiens, UniProt Q08499); assay type: functional
# [8] = biological target: cGMP-inhibited 3',5'-cyclic phosphodiesterase 3A (Homo sapiens, UniProt Q14432); assay type: functional
# Histamine H3 receptor = Histamine H3 receptor (Homo sapiens, UniProt Q9Y5N1)
# Note: assay procedure not described here.
# Sequence of Histamine H1 receptor (P35367 whole entry): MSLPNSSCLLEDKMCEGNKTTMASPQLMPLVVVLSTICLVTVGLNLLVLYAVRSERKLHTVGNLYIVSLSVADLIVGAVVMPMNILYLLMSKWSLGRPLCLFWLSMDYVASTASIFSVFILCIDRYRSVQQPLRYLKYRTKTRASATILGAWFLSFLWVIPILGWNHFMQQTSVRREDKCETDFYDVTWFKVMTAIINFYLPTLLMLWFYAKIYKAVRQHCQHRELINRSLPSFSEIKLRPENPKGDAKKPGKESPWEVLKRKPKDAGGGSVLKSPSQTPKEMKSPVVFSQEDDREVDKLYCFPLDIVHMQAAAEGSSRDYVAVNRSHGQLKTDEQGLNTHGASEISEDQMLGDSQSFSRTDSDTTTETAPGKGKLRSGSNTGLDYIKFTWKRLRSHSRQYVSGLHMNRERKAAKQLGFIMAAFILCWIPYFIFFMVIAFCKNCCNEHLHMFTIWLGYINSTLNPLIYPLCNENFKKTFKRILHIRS
# Sequence of cGMP-inhibited 3',5'-cyclic phosphodiesterase 3A (Q14432 whole entry): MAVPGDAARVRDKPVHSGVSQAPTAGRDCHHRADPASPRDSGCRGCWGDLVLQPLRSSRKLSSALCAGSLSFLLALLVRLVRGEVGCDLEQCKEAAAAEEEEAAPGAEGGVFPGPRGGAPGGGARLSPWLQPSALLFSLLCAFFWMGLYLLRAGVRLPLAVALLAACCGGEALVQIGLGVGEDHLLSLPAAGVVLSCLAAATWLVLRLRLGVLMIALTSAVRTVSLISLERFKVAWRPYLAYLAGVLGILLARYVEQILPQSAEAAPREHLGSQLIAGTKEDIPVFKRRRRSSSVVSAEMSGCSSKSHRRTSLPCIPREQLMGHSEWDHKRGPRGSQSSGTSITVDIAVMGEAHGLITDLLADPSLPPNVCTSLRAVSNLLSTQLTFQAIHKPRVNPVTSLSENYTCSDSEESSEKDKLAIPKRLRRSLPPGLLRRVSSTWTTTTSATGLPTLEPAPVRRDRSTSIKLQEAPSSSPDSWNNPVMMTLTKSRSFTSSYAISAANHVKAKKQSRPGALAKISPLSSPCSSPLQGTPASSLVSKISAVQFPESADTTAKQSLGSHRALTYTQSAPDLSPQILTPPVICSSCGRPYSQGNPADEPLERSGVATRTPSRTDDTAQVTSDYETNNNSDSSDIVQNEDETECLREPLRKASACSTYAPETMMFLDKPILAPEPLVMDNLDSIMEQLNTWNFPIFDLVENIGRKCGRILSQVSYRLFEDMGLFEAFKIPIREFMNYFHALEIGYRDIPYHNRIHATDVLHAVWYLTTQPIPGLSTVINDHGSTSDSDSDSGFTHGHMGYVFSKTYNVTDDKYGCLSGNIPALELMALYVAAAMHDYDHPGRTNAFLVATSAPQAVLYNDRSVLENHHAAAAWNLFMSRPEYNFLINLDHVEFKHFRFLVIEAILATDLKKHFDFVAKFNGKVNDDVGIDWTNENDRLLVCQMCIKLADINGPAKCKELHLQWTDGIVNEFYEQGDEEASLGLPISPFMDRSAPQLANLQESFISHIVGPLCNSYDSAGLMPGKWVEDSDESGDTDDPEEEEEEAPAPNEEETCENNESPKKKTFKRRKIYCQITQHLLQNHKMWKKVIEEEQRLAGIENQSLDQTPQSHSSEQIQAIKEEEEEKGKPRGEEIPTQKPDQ
# Sequence of Delta-type opioid receptor (P41143 whole entry): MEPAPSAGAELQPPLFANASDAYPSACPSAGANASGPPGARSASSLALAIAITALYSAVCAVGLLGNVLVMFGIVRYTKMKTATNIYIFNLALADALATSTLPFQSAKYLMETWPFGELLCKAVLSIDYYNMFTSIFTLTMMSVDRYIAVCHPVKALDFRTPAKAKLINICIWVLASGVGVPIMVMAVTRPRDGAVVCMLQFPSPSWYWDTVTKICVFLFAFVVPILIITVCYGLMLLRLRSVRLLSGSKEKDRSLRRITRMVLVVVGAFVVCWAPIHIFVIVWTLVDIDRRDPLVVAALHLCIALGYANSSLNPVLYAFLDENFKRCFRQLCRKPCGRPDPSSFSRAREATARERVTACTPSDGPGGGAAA
# Sequence of Histamine H3 receptor (Q9Y5N1 whole entry): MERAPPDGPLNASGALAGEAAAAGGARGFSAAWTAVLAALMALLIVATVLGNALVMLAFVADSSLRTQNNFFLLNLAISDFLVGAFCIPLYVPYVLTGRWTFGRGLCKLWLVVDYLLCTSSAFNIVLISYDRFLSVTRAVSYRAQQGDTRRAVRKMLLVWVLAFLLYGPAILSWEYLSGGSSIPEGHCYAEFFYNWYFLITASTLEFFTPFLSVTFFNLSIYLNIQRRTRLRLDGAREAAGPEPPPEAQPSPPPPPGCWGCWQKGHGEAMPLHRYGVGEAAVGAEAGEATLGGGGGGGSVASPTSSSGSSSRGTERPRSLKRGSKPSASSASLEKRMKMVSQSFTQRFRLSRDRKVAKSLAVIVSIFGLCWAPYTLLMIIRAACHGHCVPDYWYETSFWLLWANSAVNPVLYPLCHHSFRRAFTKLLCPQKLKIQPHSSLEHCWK
# Sequence of Adenosine receptor A2a (P29274 whole entry): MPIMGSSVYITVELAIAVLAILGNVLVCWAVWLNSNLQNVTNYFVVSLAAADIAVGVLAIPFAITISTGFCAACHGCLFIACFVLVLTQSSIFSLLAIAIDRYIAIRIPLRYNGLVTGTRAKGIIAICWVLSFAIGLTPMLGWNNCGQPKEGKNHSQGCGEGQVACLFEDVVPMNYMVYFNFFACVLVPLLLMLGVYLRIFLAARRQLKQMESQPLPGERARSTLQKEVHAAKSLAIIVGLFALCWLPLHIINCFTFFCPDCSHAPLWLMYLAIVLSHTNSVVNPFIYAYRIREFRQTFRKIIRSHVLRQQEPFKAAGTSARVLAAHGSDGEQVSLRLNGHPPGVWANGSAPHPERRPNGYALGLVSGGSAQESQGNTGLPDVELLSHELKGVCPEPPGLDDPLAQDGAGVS
# Sequence of 3',5'-cyclic-AMP phosphodiesterase 4D (Q08499 whole entry): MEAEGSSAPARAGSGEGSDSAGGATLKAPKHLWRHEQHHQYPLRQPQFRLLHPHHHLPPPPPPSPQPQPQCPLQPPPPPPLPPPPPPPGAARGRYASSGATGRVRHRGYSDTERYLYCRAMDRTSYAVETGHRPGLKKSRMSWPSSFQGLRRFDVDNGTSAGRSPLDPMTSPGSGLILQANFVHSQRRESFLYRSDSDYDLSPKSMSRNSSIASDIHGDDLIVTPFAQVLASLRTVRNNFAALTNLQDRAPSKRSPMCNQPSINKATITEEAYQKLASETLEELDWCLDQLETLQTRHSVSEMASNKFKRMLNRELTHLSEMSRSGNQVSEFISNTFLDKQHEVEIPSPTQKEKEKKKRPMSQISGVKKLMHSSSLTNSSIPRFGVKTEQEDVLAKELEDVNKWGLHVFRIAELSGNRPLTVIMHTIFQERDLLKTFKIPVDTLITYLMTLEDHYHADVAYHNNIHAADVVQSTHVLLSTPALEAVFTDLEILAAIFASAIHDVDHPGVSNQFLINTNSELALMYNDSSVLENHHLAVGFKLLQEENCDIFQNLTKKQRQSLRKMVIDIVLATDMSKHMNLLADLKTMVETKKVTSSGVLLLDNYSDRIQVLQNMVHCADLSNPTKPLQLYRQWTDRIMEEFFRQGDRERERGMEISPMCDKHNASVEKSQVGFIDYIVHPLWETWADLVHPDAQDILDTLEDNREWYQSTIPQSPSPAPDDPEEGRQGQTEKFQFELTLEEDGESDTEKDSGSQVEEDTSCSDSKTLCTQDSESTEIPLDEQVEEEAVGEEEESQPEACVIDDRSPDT
# Sequence of Melanocortin receptor 3 (P41968 whole entry): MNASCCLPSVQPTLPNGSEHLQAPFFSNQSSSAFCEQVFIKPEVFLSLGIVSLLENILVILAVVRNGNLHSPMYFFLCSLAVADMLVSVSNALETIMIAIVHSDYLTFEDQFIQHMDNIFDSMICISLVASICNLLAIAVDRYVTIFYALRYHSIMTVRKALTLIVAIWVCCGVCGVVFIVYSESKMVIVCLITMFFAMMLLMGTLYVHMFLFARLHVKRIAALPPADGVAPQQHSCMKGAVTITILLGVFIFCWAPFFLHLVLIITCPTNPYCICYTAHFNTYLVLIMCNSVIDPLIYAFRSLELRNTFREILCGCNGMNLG
# Sequence of Gamma-aminobutyric acid receptor subunit alpha-1 (P62813 whole entry): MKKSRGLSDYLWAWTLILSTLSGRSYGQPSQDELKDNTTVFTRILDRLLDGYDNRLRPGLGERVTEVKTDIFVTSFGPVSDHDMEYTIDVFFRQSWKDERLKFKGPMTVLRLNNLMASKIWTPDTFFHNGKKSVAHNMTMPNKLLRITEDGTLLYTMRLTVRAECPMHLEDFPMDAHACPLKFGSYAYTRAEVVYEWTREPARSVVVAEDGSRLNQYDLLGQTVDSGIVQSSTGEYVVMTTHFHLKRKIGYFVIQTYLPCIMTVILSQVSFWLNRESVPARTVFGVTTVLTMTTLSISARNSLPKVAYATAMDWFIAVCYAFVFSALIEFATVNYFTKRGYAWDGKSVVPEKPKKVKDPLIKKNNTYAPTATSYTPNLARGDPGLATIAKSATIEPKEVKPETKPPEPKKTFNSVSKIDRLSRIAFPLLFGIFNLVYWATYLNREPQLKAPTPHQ
Structure (SMILES),AC50 (Adenosine receptor A2a),AC50 [1],AC50 (Estrogen receptor),AC50 [2],AC50 [3],AC50 (Histamine H1 receptor),AC50 [4],AC50 [5],AC50 (Melanocortin receptor 3),AC50 [6],AC50 [7],AC50 [8],AC50 (Histamine H3 receptor)
C=CCC1(C(C)CC)C(=O)NC(=O)NC1=O (stereo unspecified) [TALBUTAL],> 10 µM,> 10 µM,> 10 µM,> 10 µM,> 10 µM,> 10 µM,> 10 µM,> 30 µM,> 10 µM,> 30 µM,> 30 µM,> 30 µM,> 10 µM
Cc1cc(O)c(C(=O)N[C@@H](C(=O)N[C@@H]2C(=O)N3C(C(=O)O)=C(CSc4nnnn4C)CS[C@H]23)c2ccc(O)cc2)cn1 [CEFPIRAMIDE],> 30 µM,> 30 µM,> 30 µM,> 30 µM,> 30 µM,> 30 µM,> 30 µM,> 30 µM,> 30 µM,> 30 µM,> 30 µM,> 30 µM,> 30 µM
OC(CNCC(O)C1CCc2cc(F)ccc2O1)C1CCc2cc(F)ccc2O1 (stereo unspecified) [NEBIVOLOL],> 30 µM,4.5 µM,> 30 µM,> 30 µM,> 30 µM,> 30 µM,1.6 µM,20 µM,8.7 µM,> 30 µM,> 30 µM,> 30 µM,23 µM
CCC1(CC)C(=O)NCC(C)C1=O (stereo unspecified) [METHYPRYLON],> 30 µM,> 30 µM,> 30 µM,> 30 µM,> 30 µM,> 30 µM,> 30 µM,> 30 µM,> 30 µM,> 30 µM,> 30 µM,> 30 µM,> 30 µM
CC(CC(c1ccccc1)c1ccccc1)NC(C)(C)C (stereo unspecified) [TERODILINE],> 30 µM,16 µM,> 30 µM,> 30 µM,> 30 µM,0.76 µM,> 30 µM,> 30 µM,> 30 µM,> 30 µM,> 30 µM,> 30 µM,> 30 µM
CN1CCC(=C2c3ccccc3CCc3sccc32)CC1 [PIZOTYLINE],> 30 µM,0.51 µM,> 30 µM,> 10 µM,> 10 µM,0.0047 µM,3.56 µM,0.017 µM,> 30 µM,> 30 µM,> 10 µM,> 30 µM,> 10 µM
CCOC(=O)[N-]c1cn(N2CCOCC2)n[o+]1 [MOLSIDOMINE],> 30 µM,> 30 µM,> 30 µM,> 30 µM,> 30 µM,> 30 µM,> 30 µM,> 30 µM,> 30 µM,> 10 µM,> 30 µM,> 30 µM,> 30 µM
